Experiments:
[1] = test system: normal myocardium; assay: Separate PET imaging with a single imaging agent, without combination; format: in vivo, Bama miniature pig; conditions: Comparative Example 3; fasting; each agent administered separately, not in combination; FIGS. 7a, 7b
Description: Each experiment was performed using a Bama miniature pig of about one year old, and the experiment was repeated three times; taking the second experiment of the three experiments as an example: the piglet weighed about 10 kg, and the two imaging agents were administered separately for imaging rather than in combination. The results of separate PET imaging with ^18F-FDG and XTR003 are shown in FIGS. 7a and 7b, respectively.

[2] = test system: anterior wall myocardium with chronic myocardial infarction; assay: Combined 18F-FDG and XTR003 PET myocardial metabolic imaging under fasting in the chronic myocardial infarction pig model; format: in vivo, Bama miniature pig; conditions: for uptake in the myocardial infarction area (PET myocardial metabolic image): 18F-FDG 1mCi first
Description: Each experiment used a Bama miniature pig approximately one year old, and the experiment was repeated three times. Taking the second of the three experiments as an example: the piglet weighed approximately 10 kg. A constrictive ring was placed at the site of the left anterior descending coronary artery to gradually induce chronic myocardial infarction in the anterior wall myocardium. Four weeks later, for comparative purposes, a ^99mTc-Sestamibi SPECT myocardial perfusion imaging was performed in the morning (this imaging is the gold standard for assessing viable and scarred myocardium in the infarcted area and was used in this study as a reference for comparing PET imaging results). In the afternoon, a one-day protocol for combined ^18F-FDG and XTR003 PET imaging was performed (with at least 2-hour interval from the SPECT conducted in the morning, during which fasting was maintained). ^18F-FDG PET imaging was performed first, followed by XTR003 PET imaging. The injection doses of the above two agents were 1mCi and 2.5mCi, respectively. XTR003 was injected 1 hour after the ^18F-FDG injection, followed immediately by PET imaging. Each experiment used a Bama miniature pig about one year old, and the experiment was repeated three times. Taking the second of the three experiments as an example: the piglet weighed approximately 11 kg. A constriction ring was placed at the site of the left anterior descending coronary artery to gradually induce chronic myocardial infarction in the anterior wall myocardium. Three weeks later, for comparative purposes, a 99mTc-Sestamibi SPECT myocardial perfusion imaging was performed in the morning. In the afternoon, a one-day protocol combining ^18F-FDG and XTR003 PET imaging was performed, ^18F-FDG PET imaging was performed first, followed by XTR003 PET imaging. The injection doses of the above two agents were 1mCi and 3.1mCi, respectively. Among them, XTR003 was injected 1 hour after the ^18F-FDG injection, followed immediately by PET imaging. A disease animal model was constructed as described in Example 1. After myocardial perfusion imaging, “a one-day protocol combining ^18F-FDG PET and XTR003 PET imaging” was performed, wherein XTR003 was injected one hour after the injection of ^18F-FDG, followed immediately by PET imaging. The only difference between the Comparative Example and Example 1 is that the injection doses of the above two agents were 1 mCi and 0.25 mCi, respectively. The results of the combined ^18F-FDG and XTR003 PET imaging (also used the second experiment out of three replicates as an example) are shown in FIGS. 3a-3b. In the Figs.: An animal model of the disease was constructed as described in Example 1, differing only in the order of imaging; specifically, XTR003 PET imaging was performed first, followed by ^18F-FDG PET imaging. The injection doses of the two agents were 1 mCi and 3 mCi, respectively. In the Figs.: An animal model of the disease was constructed as described in Example 3. After myocardial perfusion, “a one-day protocol combining XTR003 PET and ^18F-FDG PET imaging” was performed, wherein ^18F-FDG was injected one hour after the injection of XTR003, followed immediately by PET imaging. The only difference between the Comparative Example and Example 3 was that the injection doses of the above two agents were 1 mCi and 0.25 mCi, respectively. In the Figs.: The disease animal model was constructed according to the description of Example 1. The only difference from Example 1 was that after the myocardial perfusion imaging, a “two-day protocol combining ^18F-FDG PET and XTR003 PET imaging” was performed instead of the “one-day protocol”. In the Figs.: An animal model of the disease was constructed as described in Example 1. After myocardial perfusion imaging, a “a one-day protocol combining ^18F-FDG PET and XTR003 PET imaging” was performed, wherein XTR003 was injected one hour after the injection of ^18F-FDG, followed immediately by PET imaging. […]

In the case of `CCCCCCCCC([18F])CCCCC1CC1CC(=O)O` (stereo not shown) [XTR003], the “visibility of myocardial metabolic images” value [1] is reported as “can show normal image”, the “image quality of myocardial metabolic images” value (from here on “image quality”) ([2]; Comparative Example 1, one-day protocol, 18F-FDG 1 mCi first, then XTR003 0.25 mCi, FIGS. 3a-3b) is reported as “excessive image noise” and the “image quality” value ([2]; Comparative Example 2, one-day protocol, XTR003 1 mCi first, then 18F-FDG 0.25 mCi, FIGS. 5a-5b) is reported as “normal image quality”. The “uptake in the myocardial infarction area (PET myocardial metabolic image)” value ([2]; Example 1, one-day protocol, XTR003 2.5mCi injected 1 hour later, FIGS. 1b-1c) was “moderate uptake”, the “uptake in the myocardial infarction area (PET myocardial metabolic image)” value ([2]; Example 2, one-day protocol, XTR003 3.1mCi injected 1 hour later, FIGS. 2b-2c) was “no XTR003 uptake” and the “image quality” value ([2]; Example 3, one-day protocol, XTR003 1 mCi first, then 18F-FDG 3 mCi, FIGS. 4a-4b) was “normal image quality”. For the same compound, the “image quality” value ([2]; Example 4, two-day protocol, FIGS. 6a-6b) was “normal image quality”.

Source: patent US20260263644A1, “USE OF POSITRON MYOCARDIAL FATTY ACID METABOLISM IMAGING AGENT AND POSITRON 18F-FDG MYOCARDIAL GLUCOSE IMAGING AGENT IN PET COMBINED IMAGING” (priority 2023, published 2026)
